The structures appear in SMILES notation.

One experiment relates to urinary PGE2/TXB2 ratio. The experiment is described as follows: Selective COX-2 and COX-1 blockage in mice, urinary PGE2/TXB2 ratio pre- and post-intervention. In kind it is in vivo, mice (NOD, B6, B6.NODc1t).
Another experiment deals with T1, COX-2 (Mus musculus, UniProt Q05769).
T1 construct: cyclooxygenase 2 and interleukin-1 alpha expression in SENCAR mouse epidermis
T1 sequence (Q05769 18-604): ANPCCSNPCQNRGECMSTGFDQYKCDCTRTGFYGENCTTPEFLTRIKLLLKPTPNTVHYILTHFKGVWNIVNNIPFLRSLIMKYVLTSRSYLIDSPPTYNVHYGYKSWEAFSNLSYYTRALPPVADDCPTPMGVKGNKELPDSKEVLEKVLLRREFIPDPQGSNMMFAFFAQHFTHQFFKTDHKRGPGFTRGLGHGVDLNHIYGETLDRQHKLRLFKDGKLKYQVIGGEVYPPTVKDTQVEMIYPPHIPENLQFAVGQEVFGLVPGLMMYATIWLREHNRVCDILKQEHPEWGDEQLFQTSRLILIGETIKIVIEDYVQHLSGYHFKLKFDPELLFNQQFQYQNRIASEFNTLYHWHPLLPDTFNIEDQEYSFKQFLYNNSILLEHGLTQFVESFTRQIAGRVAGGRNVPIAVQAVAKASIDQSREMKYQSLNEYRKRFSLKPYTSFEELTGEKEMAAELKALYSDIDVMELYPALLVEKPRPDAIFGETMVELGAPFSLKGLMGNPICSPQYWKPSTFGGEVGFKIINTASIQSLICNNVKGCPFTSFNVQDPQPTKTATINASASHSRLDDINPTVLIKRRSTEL
The settings on record: cited from Zhao et al., Mol. Carcinog. 1999; cited from earlier work.

Method for urinary PGE2/TXB2 ratio: Urine was directly aliquoted and stored at −70° C. until assay. Enzyme immunoassay was used to particularly detect renal derived metabolites and the systemic derived metabolites. […] The EIA kits utilize a competitive binding assay between unlabeled compound from the specimen sample and a fixed quantity of peroxidase labeled compound for a limited number of binding sites on a compound specific antibody. Assays were performed in 96 well microtitre plates with 50 μL specimen. The unknown sample was bound to appropriate antiserum and conjugate and optical density read at 450 nm using a BIORAD 3550 UV microplate reader. Raw optical density data was converted to percent binding by plotting the percent binding B/Bo as a function of the log compound concentration. Concentration of the prostanoid compound was then directly calculated in pg/well. This concentration was then converted to pg/mL and subsequently to pg/mg urinary creatinine to adjust for urinary concentration, body size and age. The final ratios of PGE2/TXB2 or PGE2+6kPGF1α/TXB2 were then directly calculated.
Selective COX-2 and COX-1 blockage were analyzed in three groups of mice—NOD mice, B6 mice, and a congenic B6.NODc1t strain.
Eight age-matched female 6-8 week old mice of each strain (NOD, B6, and C1t) were divided into two groups.

`CS(=O)(=O)Nc1ccc([N+](=O)[O-])cc1OC1CCCCC1` [NS-398]: the “increase in the urinary PGE2/TXB2 ratio” value with urinary PGE2/TXB2 ratio (10 mg/kg/d i.p. daily for 14 days, all the three strains of mice (NOD, B6, B6.NODc1t), female 6-8 week old) is 3-7 fold. Also, in the experiment with urinary PGE2/TXB2 ratio (NOD and B6.NODc1t group, COX-2 blocker 10 mg/kg/d i.p. 14 days, pre- vs post-intervention), the “difference in urinary PGE2/TXB2 (Dunn's simultaneous multiple comparison test)” value is listed as “significant”.

As for `COc1cc(C2Oc3cc([C@H]4Oc5cc(O)cc(O)c5C(=O)[C@@H]4O)ccc3OC2CO)ccc1O` (stereo partly drawn) [silybinin], on COX-2, the “COX-2 inhibition relative to COX-1 inhibition” value is “significant COX-2 inhibition”.

The record behind these values is patent US20040121489A1, “COX-2 mediated altered prostaglandin balance in diabetes complications” (priority 2002, published 2004).
